Measurements: patent publication US11911434B2, “Stable antibody-drug conjugate, preparation method therefor, and use thereof” (GENEQUANTUM HEALTHCARE (SUZHOU) CO., LTD., priority 2014, dated 2024)

Columns and labels:
[1] = system: MCF-7 cells; assay: Tumor cell proliferation, CellTiter Glo, MCF-7; format: cell-based, human; conditions: MCF-7, 48-96 h; read-out: Inhibition effects on tumor cell proliferation (IC50)
Experimental: (§1) 1) ErbB2/Her2 low expressing human breast cancer cells MCF-7, MDA-MB-468, ErbB2/Her2 high expressing human breast cancer cells BT-474, SK-BR-3, HCC1954, human ovarian cancer cells SK-OV-3, human gastric cancer cell NCI-N87 was seeded into a 96-well plate at 100 μl/well (containing 1000 to 10000 cells), and incubated in a cell culture incubator overnight (37° C., 5% CO2, 95% air, 100% humidity).
(§2) 3) The cell plate was removed from the incubator, equilibrated for about 30 minutes to room temperature. Each well was added 100 μl CellTiter Glo reagent, shocked in an oscillator for 2 min, then left stand for 10 min at room temperature in dark, the relative light units (RLU) is measured with a BioTech Gen5 microplate reader.

[2] = system: SK-OV-3 cells; assay: Tumor cell proliferation, CellTiter Glo, SK-OV-3; format: cell-based, human; conditions: SK-OV-3, 48-96 h; read-out: Inhibition effects on tumor cell proliferation (IC50)
Experimental: as §1, §2

[3] = system: NCI-N87 cells; assay: Tumor cell proliferation, CellTiter Glo, NCI-N87; format: cell-based, human; conditions: NCI-N87, 48-96 h; read-out: Inhibition effects on tumor cell proliferation (IC50)
Experimental: as §1, §2

[4] = system: cells with low ErbB2/Her2 expression (MCF-7, MDA-MB-468); assay: Tumor cell proliferation, cells with low ErbB2/Her2 expression; format: cell-based, human; conditions: 0.005-30 nM
Experimental: as §1, §2

[5] = system: SK-BR-3 cells; assay: Tumor cell proliferation, CellTiter Glo, SK-BR-3; format: cell-based, human; conditions: SK-BR-3, 48-96 h; read-out: Inhibition effects on tumor cell proliferation (IC50)
Experimental: as §1, §2

[6] = system: HCC-1954 cells; assay: Tumor cell proliferation, CellTiter Glo, HCC1954; format: cell-based, human; conditions: HCC-1954, 48-96 h; read-out: Inhibition effects on tumor cell proliferation (IC50)
Experimental: as §1, §2

[7] = system: cells with high ErbB2/Her2 expression (BT-474, SK-BR-3, HCC1954, SK-OV-3, NCI-N87); assay: Tumor cell proliferation, cells with high ErbB2/Her2 expression; format: cell-based, human; conditions: 0.005-30 nM
Experimental: as §1, §2

[8] = system: MDA-MB-468 cells; assay: Tumor cell proliferation, CellTiter Glo, MDA-MB-468; format: cell-based, human; conditions: MDA-MB-468, 48-96 h; read-out: Inhibition effects on tumor cell proliferation (IC50)
Experimental: as §1, §2

[9] = system: BT-474 cells; assay: Tumor cell proliferation, CellTiter Glo, BT-474; format: cell-based, human; conditions: BT-474, 48-96 h; read-out: Inhibition effects on tumor cell proliferation (IC50)
Experimental: as §1, §2

[10] = system: HCC1954 xenograft; assay: HCC1954 xenograft in nude mice; format: in vivo, BALB/c nude mouse; conditions: 5 mg/kg
Experimental: The in vivo anti-tumor effect of the candidate ADC was determined using xenograft model of nude mice after administration of the candidate ADC.
1) HCC1954 breast cancer cells in the logarithmic growth phase were collected and adjusted with matrigel buffer (PBS: BD Matrigel=1:1) to a cell density of 2.5×10^7/ml. 0.2 ml of this prepared HCC1954 cell suspension was injected subcutaneously to the right scapula of each BALB/c nude mouse (6 to 8 week-old, SPF grade, female).
2) 7 days after cell inoculation, the diameter of the tumor was measured by caliper and the tumor volume was calculated according to the Formula: V=0.5a×b^2 (a is the longest diameter of the tumor, b is the shortest diameter of the tumor). […] Administration was via the tail vein injection, and the control group received an equal volume of the vehicle. […] The tumor volumes at each time point were calculated and compared between groups. At the same time, the T-C or T/C value was used as the index to evaluate the anti-tumor activity of each drug. T-C value is calculated as the follows: T is the average time (Days) when the average tumor volume of each treatment group reaches a preset size (500 mm^3), C is the average time (Day) when the average tumor volume of the controlled group reaches the preset size (500 mm^3). While T/C (percentage) is the index for tumor inhibition effect, T is the average tumor volume of all the drug treatment groups at a fixed time point, and C is the average tumor volume of the control group at the fixed time point.

| Molecule | IC50 [1] [nM] | IC50 [2] [nM] | IC50 [3] [nM] | inhibition effect on proliferation (in words) [4] | IC50 [5] [nM] | IC50 [6] [nM] | inhibition effect on proliferation (in words) [7] | IC50 [8] [nM] | IC50 [9] [nM] | inhibition on ErbB2/Her2 positive breast cancer (in words) [10] | tumor volumes compared with control group ([10]; 10 days after administration) | Tumor Size at day 31 (Mean ± SEM) ([10]; single tail vein injection, n=10) [mm^3] | tumor regrowth ([10]; until 38 days after the administration) | T-C at 500 mm^3 ([10]; time to reach 500 mm^3, treated minus control) [days] | T/C ([10]; treated / control average tumor volume) [%] |
| --- | --- | --- | --- | --- | --- | --- | --- | --- | --- | --- | --- | --- | --- | --- | --- |
| COc1cc2cc(c1Cl)N(C)C(=O)C[C@H](OC(=O)[C@H](C)N(C)C(=O)CCS)[C@]1(C)O[C@H]1[C@H](C)[C@@H]1C[C@@](O)(NC(=O)O1)[C@H](OC)/C=C/C=C(\C)C2 [DM1] | 5.71 | 1.59 | 7.18 | significant inhibition effect | 1.92 | 2.9 | significant inhibition effect | 4.22 | 16.3 |  |  |  |  |  |  |
| ado-trastuzumab emtansine [Kadcyla] |  | 0.049 | 0.031 | only inhibits the proliferation of cells with low ErbB2/Her2 expression at high concentrations | 0.03 | 0.049 |  |  | 0.144 | significant inhibition | significantly smaller than control group | 29 ± 4 | No sign of tumor regrowth | >17 | 1.3 |
